# Data from US20090018111A1, “Novel Antimicrobial Medicament” (priority 2004, published 2009).
# Like-named read-outs stand apart in the source and are kept apart here.
# How the values were obtained:
# E. coli ML1410 = assay: Sensitivity test (agar dilution); type: cell-based, Escherichia coli; conditions: Escherichia coli
# Procedure, shortened: (§1)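 FIC index is computed from MICs of each drug alone versus in combination (≤1 = enhancement, >1 = none). MICs are measured on Mueller Hinton agar plates carrying twofold dilution series and inoculated with about 10^6 CFU/ml bacterial suspension.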
# E. coli NIHJ JC-2 = assay: Sensitivity test (agar dilution); type: cell-based, Escherichia coli; conditions: Escherichia coli
# Procedure, shortened: as §1
# E. coli ML1410 RP4 = assay: microbe, parasite or virus in culture; type: cell-based, Escherichia coli; conditions: Escherichia coli
# Procedure, shortened: as §1
# K. pneumoniae ATCC10031 = assay: Sensitivity test (agar dilution); type: cell-based, Klebsiella pneumoniae; conditions: Klebsiella pneumoniae, K. pneumoniae ATCC10031, read-out: MIC concomitant
# Procedure, shortened: as §1
smiles,measurement,setting,value
"C[C@H]1C=C(c2csc(SC3=C(C(=O)O)N4C(=O)[C@H]([C@@H](C)O)[C@H]4[C@H]3C)n2)CN1 [SM, (4R,5S,6S)-6-[(1R)-1-Hydroxyethyl]-4-methyl-3-({4-[(5S)-5-methyl-2,5-dihydro-1H-pyrrol-3-yl]-1,3-thiazol-2-yl}sulfanyl)-7-oxo-1-azabicyclo[3.2.0]hept-2-ene-2-carboxylic acid]",MIC,"E. coli ML1410; ML1410, Concomitant (BIPM:SM = 1:1), E. coli ML1410, read-out: MIC concomitant",0.063 µg/mL
same,MIC,"E. coli ML1410; ML1410, Concomitant (CAZ:SM = 1:1), E. coli ML1410, read-out: MIC concomitant",0.063 µg/mL
same,MIC,"E. coli ML1410; ML1410, Concomitant (CPFX:SM = 1:1), E. coli ML1410, read-out: MIC concomitant",0.125 µg/mL
same,MIC,"E. coli ML1410; ML1410, Concomitant (DRPM:SM = 1:1), E. coli ML1410, read-out: MIC concomitant",0.031 µg/mL
same,MIC,"E. coli ML1410; ML1410, Concomitant (IPM:SM = 1:1), read-out: MIC",0.125 µg/mL
same,MIC,"E. coli ML1410; ML1410, Concomitant (MEPM:SM = 1:1), read-out: MIC",≤ 0.016 µg/mL
same,MIC,"E. coli ML1410; ML1410, Concomitant (MEPM:SM = 1:2), read-out: MIC",≤ 0.031 µg/mL
same,MIC,"E. coli ML1410; ML1410, Concomitant (MEPM:SM = 1:4), read-out: MIC",≤ 0.063 µg/mL
same,MIC,"E. coli ML1410; ML1410, Concomitant (PAPM:SM = 1:1), E. coli ML1410, read-out: MIC concomitant",0.125 µg/mL
same,MIC,"E. coli ML1410; ML1410, Concomitant (PIPC:SM = 1:1), E. coli ML1410, read-out: MIC concomitant",0.125 µg/mL
same,MIC,"E. coli ML1410; ML1410, Concomitant drug (MEPM:SM = 2:1), read-out: MIC",≤ 0.008 µg/mL
same,MIC,"E. coli ML1410; ML1410, alone, read-out: MIC",0.25 µg/mL
same,MIC,"E. coli ML1410; ML1410, drug alone, E. coli ML1410, read-out: MIC alone",0.25 µg/mL
same,MIC,"E. coli NIHJ JC-2; NIHJJC2, Concomitant (AZT:SM = 1:1), E. coli NIHJ JC-2, read-out: MIC concomitant",0.063 µg/mL
same,MIC,"E. coli NIHJ JC-2; NIHJJC2, Concomitant (BIPM:SM = 1:1), E. coli NIHJ JC-2, read-out: MIC concomitant",0.031 µg/mL
same,MIC,"E. coli NIHJ JC-2; NIHJJC2, Concomitant (CAZ:SM = 1:1), E. coli NIHJ JC-2, read-out: MIC concomitant",0.063 µg/mL
same,MIC,"E. coli NIHJ JC-2; NIHJJC2, Concomitant (CPFX:SM = 1:1), E. coli NIHJ JC-2, read-out: MIC concomitant",≤ 0.002 µg/mL
same,MIC,"E. coli NIHJ JC-2; NIHJJC2, Concomitant (DRPM:SM = 1:1), E. coli NIHJ JC-2, read-out: MIC concomitant",0.016 µg/mL
same,MIC,"E. coli NIHJ JC-2; NIHJJC2, Concomitant (IPM:SM = 1:1), read-out: MIC",0.063 µg/mL
same,MIC,"E. coli NIHJ JC-2; NIHJJC2, Concomitant (MEPM:SM = 1:1), read-out: MIC",≤ 0.016 µg/mL
same,MIC,"E. coli NIHJ JC-2; NIHJJC2, Concomitant (MEPM:SM = 1:2), read-out: MIC",≤ 0.031 µg/mL
same,MIC,"E. coli NIHJ JC-2; NIHJJC2, Concomitant (MEPM:SM = 1:4), read-out: MIC",≤ 0.063 µg/mL
same,MIC,"E. coli NIHJ JC-2; NIHJJC2, Concomitant (PAPM:SM = 1:1), E. coli NIHJ JC-2, read-out: MIC concomitant",0.063 µg/mL
same,MIC,"E. coli NIHJ JC-2; NIHJJC2, Concomitant (PIPC:SM = 1:1), E. coli NIHJ JC-2, read-out: MIC concomitant",0.063 µg/mL
same,MIC,"E. coli NIHJ JC-2; NIHJJC2, Concomitant drug (MEPM:SM = 2:1), read-out: MIC",≤ 0.008 µg/mL
same,MIC,"E. coli NIHJ JC-2; NIHJJC2, alone, read-out: MIC",0.125 µg/mL
same,MIC,"E. coli NIHJ JC-2; NIHJJC2, drug alone, E. coli NIHJ JC-2, read-out: MIC alone",0.125 µg/mL
same,MIC,"E. coli ML1410 RP4; ML1410RP4, Concomitant (IPM:SM = 1:1)",0.125 µg/mL
same,MIC,"E. coli ML1410 RP4; ML1410RP4, Concomitant (MEPM:SM = 1:1)",≤ 0.016 µg/mL
same,MIC,"E. coli ML1410 RP4; ML1410RP4, Concomitant (MEPM:SM = 1:2)",≤ 0.031 µg/mL
same,MIC,"E. coli ML1410 RP4; ML1410RP4, Concomitant (MEPM:SM = 1:4)",≤ 0.063 µg/mL
same,MIC,"E. coli ML1410 RP4; ML1410RP4, Concomitant drug (MEPM:SM = 2:1)",≤ 0.008 µg/mL
same,MIC,"E. coli ML1410 RP4; ML1410RP4, alone",0.5 µg/mL
same,MIC,"E. coli ML1410 RP4; ML1410RP4, read-out: MIC alone, drug alone, E. coli ML1410 RP4",0.5 µg/mL
same,MIC,"E. coli ML1410 RP4; ML1410RP4, read-out: MIC concomitant, Concomitant (AZT:SM = 1:1), E. coli ML1410 RP4",0.063 µg/mL
same,MIC,"E. coli ML1410 RP4; ML1410RP4, read-out: MIC concomitant, Concomitant (BIPM:SM = 1:1), E. coli ML1410 RP4",0.125 µg/mL
same,MIC,"E. coli ML1410 RP4; ML1410RP4, read-out: MIC concomitant, Concomitant (CAZ:SM = 1:1), E. coli ML1410 RP4",0.125 µg/mL
same,MIC,"E. coli ML1410 RP4; ML1410RP4, read-out: MIC concomitant, Concomitant (CPFX:SM = 1:1), E. coli ML1410 RP4",0.25 µg/mL
same,MIC,"E. coli ML1410 RP4; ML1410RP4, read-out: MIC concomitant, Concomitant (DRPM:SM = 1:1), E. coli ML1410 RP4",0.031 µg/mL
same,MIC,"E. coli ML1410 RP4; ML1410RP4, read-out: MIC concomitant, Concomitant (PAPM:SM = 1:1), E. coli ML1410 RP4",0.125 µg/mL
same,MIC,"E. coli ML1410 RP4; ML1410RP4, read-out: MIC concomitant, Concomitant (PIPC:SM = 1:1), E. coli ML1410 RP4",0.5 µg/mL
same,MIC,"K. pneumoniae ATCC10031; ATCC10031, Concomitant (AZT:SM = 1:1)",0.004 µg/mL
same,MIC,"K. pneumoniae ATCC10031; ATCC10031, Concomitant (BIPM:SM = 1:1)",0.016 µg/mL
same,MIC,"K. pneumoniae ATCC10031; ATCC10031, Concomitant (CAZ:SM = 1:1)",0.008 µg/mL
same,MIC,"K. pneumoniae ATCC10031; ATCC10031, Concomitant (CPFX:SM = 1:1)",≤ 0.002 µg/mL
same,MIC,"K. pneumoniae ATCC10031; ATCC10031, Concomitant (DRPM:SM = 1:1)",0.008 µg/mL
